According to US12077503B2, “Substituted cyclic amides and their use as herbicides” (FMC CORPORATION, priority 2015, dated 2024):

Tests used:
Assay type in all cases: in vivo
[1] = test system: ryegrass, Italian (Italian ryegrass, Lolium multiflorum); experiment: Test A preemergence; conditions: Lolium multiflorum, pre-emergence, 240 h; for pest or weed control at 125 g/ha: 125 g ai/ha, Preemergence, visual injury rating after approximately 10 d, read-out: Ryegrass, Italian plant response rating (0 to 100 scale, 0 is no effect, 100 is complete control); for pest or weed control at 500 g/ha: 500 g ai/ha, preemergence, visual injury rating about 10 d after treatment, 0 to 100 scale (0 no effect, 100 complete control), read-out: Ryegrass, Italian plant response rating
Outline: (§1)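 In a loam soil and sand blend, planted seeds got a preemergence directed soil spray, and young plants at the one- to two-leaf stage, 2–10 cm high, got a postemergence application; ~10 d greenhouse hold; injury rated visually, 0 = none, 100 = complete control.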

[2] = test system: Galium (catchweed bedstraw, Galium aparine); experiment: Test A postemergence; conditions: Galium, post-emergence, 240 h, read-out: Plant response rating, Galium; for pest or weed control at 125 g/ha: 125 g ai/ha, Postemergence, visual injury after approximately 10 d, 0 to 100 scale where 0 is no effect and 100 is complete control; for pest or weed control at 500 g/ha: 500 g ai/ha, postemergence, visual injury, 0 to 100 scale (0 no effect, 100 complete control), approx. 10 d
Outline: as §1

Kochia (Kochia scoparia) = experiment: Test A postemergence; conditions: Bassia scoparia, post-emergence, 240 h, read-out: Plant response rating, Kochia; for pest or weed control at 125 g/ha: 125 g ai/ha, Postemergence, visual injury after approximately 10 d, 0 to 100 scale where 0 is no effect and 100 is complete control; for pest or weed control at 500 g/ha: 500 g ai/ha, postemergence, visual injury, 0 to 100 scale (0 no effect, 100 complete control), approx. 10 d
Outline: as §1

[3] = test system: barnyardgrass (Echinochloa crus-galli); experiment: Test A postemergence; conditions: Echinochloa crus-galli, post-emergence, 240 h, read-out: Plant response rating, Barnyardgrass; for pest or weed control at 125 g/ha: 125 g ai/ha, Postemergence, visual injury after approximately 10 d, 0 to 100 scale where 0 is no effect and 100 is complete control; for pest or weed control at 500 g/ha: 500 g ai/ha, postemergence, visual injury, 0 to 100 scale (0 no effect, 100 complete control), approx. 10 d
Outline: as §1

[4] = test system: blackgrass (Alopecurus myosuroides); experiment: Test A postemergence; conditions: Alopecurus myosuroides, post-emergence, 240 h, read-out: Plant response rating, Blackgrass; for pest or weed control at 125 g/ha: 125 g ai/ha, Postemergence, visual injury after approximately 10 d, 0 to 100 scale where 0 is no effect and 100 is complete control; for pest or weed control at 500 g/ha: 500 g ai/ha, postemergence, visual injury, 0 to 100 scale (0 no effect, 100 complete control), approx. 10 d
Outline: as §1

corn (Zea mays) = experiment: Test A postemergence; conditions: Zea mays, post-emergence, 240 h; for Corn plant response rating (crop injury, 0 = no effect, 100 = complete kill) at 125 g/ha: 125 g ai/ha, Postemergence, visual injury after approximately 10 d, 0 to 100 scale where 0 is no effect and 100 is complete control; for Corn plant response rating (crop injury, 0 = no effect, 100 = complete kill) at 500 g/ha: 500 g ai/ha, postemergence, visual injury, 0 to 100 scale (0 no effect, 100 complete control), approx. 10 d
Outline: as §1

[5] = test system: giant foxtail (Setaria faberii); experiment: Test A postemergence; conditions: Setaria faberi, post-emergence, 240 h, read-out: Plant response rating, Foxtail, Giant; for pest or weed control at 125 g/ha: 125 g ai/ha, Postemergence, visual injury after approximately 10 d, 0 to 100 scale where 0 is no effect and 100 is complete control; for pest or weed control at 500 g/ha: 500 g ai/ha, postemergence, visual injury, 0 to 100 scale (0 no effect, 100 complete control), approx. 10 d
Outline: as §1

[6] = test system: pigweed (Amaranthus retroflexus); experiment: Test A postemergence; conditions: Amaranthus retroflexus, post-emergence, 240 h, read-out: Plant response rating, Pigweed; for pest or weed control at 125 g/ha: 125 g ai/ha, Postemergence, visual injury after approximately 10 d, 0 to 100 scale where 0 is no effect and 100 is complete control; for pest or weed control at 500 g/ha: 500 g ai/ha, postemergence, visual injury, 0 to 100 scale (0 no effect, 100 complete control), approx. 10 d
Outline: as §1

[7] = test system: ragweed (common ragweed, Ambrosia elatior); experiment: Test A postemergence; conditions: Ambrosia artemisiifolia, post-emergence, 240 h, read-out: Plant response rating, Ragweed; for pest or weed control at 125 g/ha: 125 g ai/ha, Postemergence, visual injury after approximately 10 d, 0 to 100 scale where 0 is no effect and 100 is complete control; for pest or weed control at 500 g/ha: 500 g ai/ha, postemergence, visual injury, 0 to 100 scale (0 no effect, 100 complete control), approx. 10 d
Outline: as §1

[8] = test system: ryegrass, Italian (Italian ryegrass, Lolium multiflorum); experiment: Test A postemergence; conditions: Lolium multiflorum, post-emergence, 240 h, read-out: Plant response rating, Ryegrass, Italian; for pest or weed control at 125 g/ha: 125 g ai/ha, Postemergence, visual injury after approximately 10 d, 0 to 100 scale where 0 is no effect and 100 is complete control; for pest or weed control at 500 g/ha: 500 g ai/ha, postemergence, visual injury, 0 to 100 scale (0 no effect, 100 complete control), approx. 10 d
Outline: as §1

[9] = test system: wheat (Triticum aestivum); experiment: Test A postemergence; conditions: Triticum aestivum, post-emergence, 240 h, read-out: Plant response rating, Wheat; for plant injury at 125 g/ha: 125 g ai/ha, Postemergence, visual injury after approximately 10 d, 0 to 100 scale where 0 is no effect and 100 is complete control; for plant injury at 500 g/ha: 500 g ai/ha, postemergence, visual injury, 0 to 100 scale (0 no effect, 100 complete control), approx. 10 d
Outline: as §1

[10] = test system: barnyardgrass (Echinochloa crus-galli); experiment: Test B flooded paddy test; conditions: Echinochloa crus-galli, 250 g ai/ha, Flood; 0 to 100 scale where 0 is no effect and 100 is complete control; read-out: Barnyardgrass plant response rating
Outline: (§2)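 Evaluation by eye, against controls, occurred 13–15 d post-treatment in a greenhouse, using a 0 (no effect) to 100 (complete control) scale. Application was into the paddy water, 3 cm deep over the soil, on 2-leaf plants.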

[11] = test system: ducksalad (Heteranthera limosa); experiment: Test B flooded paddy test; conditions: Heteranthera limosa, 250 g ai/ha, Flood; 0 to 100 scale where 0 is no effect and 100 is complete control; read-out: Ducksalad plant response rating
Outline: as §2

rice (Oryra sativa) = experiment: Test B flooded paddy test; conditions: Oryza sativa, 250 g ai/ha, Flood; 0 to 100 scale where 0 is no effect and 100 is complete control; read-out: Rice plant response rating
Outline: as §2

[12] = test system: sedge, umbrella (small-flower umbrella sedge, Cyperus difformis); experiment: Test B flooded paddy test; conditions: Cyperus difformis, 250 g ai/ha, Flood; 0 to 100 scale where 0 is no effect and 100 is complete control; read-out: Sedge, Umbrella plant response rating
Outline: as §2

| Structure (SMILES) | pest or weed control at 125 g/ha [1] [%] | pest or weed control at 500 g/ha [1] [%] | pest or weed control at 125 g/ha [2] [%] | pest or weed control at 500 g/ha [2] [%] | pest or weed control at 125 g/ha (Kochia (Kochia scoparia)) [%] | pest or weed control at 500 g/ha (Kochia (Kochia scoparia)) [%] | pest or weed control at 125 g/ha [3] [%] | pest or weed control at 500 g/ha [3] [%] | pest or weed control at 125 g/ha [4] [%] | pest or weed control at 500 g/ha [4] [%] | Corn plant response rating (crop injury, 0 = no effect, 100 = complete kill) at 125 g/ha (corn (Zea mays)) [%] | Corn plant response rating (crop injury, 0 = no effect, 100 = complete kill) at 500 g/ha (corn (Zea mays)) [%] | pest or weed control at 125 g/ha [5] [%] | pest or weed control at 500 g/ha [5] [%] | pest or weed control at 125 g/ha [6] [%] | pest or weed control at 500 g/ha [6] [%] | pest or weed control at 125 g/ha [7] [%] | pest or weed control at 500 g/ha [7] [%] | pest or weed control at 125 g/ha [8] [%] | pest or weed control at 500 g/ha [8] [%] | also measured |
| --- | --- | --- | --- | --- | --- | --- | --- | --- | --- | --- | --- | --- | --- | --- | --- | --- | --- | --- | --- | --- | --- |
| Cc1ccc([C@H]2CN(C)C(=O)[C@@H]2C(=O)Nc2cccc(F)c2F)cc1Cl [Compound 1013] | 30 | 70 | 70 | 70 | 40 | 60 | 90 | 90 | 0 | 40 | 80 | 90 | 80 | 90 | 0 | 40 | 0 | 40 | 0 | 60 | plant injury at 125 g/ha [9]: 40%; plant injury at 500 g/ha [9]: 60%; pest or weed control at 250 g/ha [10]: 55%; pest or weed control at 250 g/ha [11]: 100%; pest or weed control at 250 g/ha (rice (Oryra sativa)): 70%; pest or weed control at 250 g/ha [12]: 100% |
| COc1ccc([C@H]2CN(C)C(=O)[C@@H]2C(=O)Nc2cccc(F)c2F)cc1F [Compound 1021] | 0 | 20 | 50 | 70 | 70 | 70 | 100 | 100 | 20 | 50 | 60 | 80 | 90 | 90 | 0 | 50 | 40 | 60 | 40 | 70 | plant injury at 125 g/ha [9]: 40%; plant injury at 500 g/ha [9]: 60%; pest or weed control at 250 g/ha [10]: 80%; pest or weed control at 250 g/ha [11]: 98%; pest or weed control at 250 g/ha (rice (Oryra sativa)): 15%; pest or weed control at 250 g/ha [12]: 0% |
| Cc1cc([C@H]2CN(C)C(=O)[C@@H]2C(=O)Nc2cccc(F)c2F)cc(C)c1Br [Compound 1024] | 0 | 90 | 60 | 60 | 50 | 60 | 90 | 90 | 0 | 20 | 70 | 70 | 70 | 90 | 30 | 50 | 0 | 0 | 30 | 30 | plant injury at 125 g/ha [9]: 0%; plant injury at 500 g/ha [9]: 30%; pest or weed control at 250 g/ha [10]: 40%; pest or weed control at 250 g/ha [11]: 70%; pest or weed control at 250 g/ha (rice (Oryra sativa)): 0%; pest or weed control at 250 g/ha [12]: 0% |
